Key:
[1] = Storage stability of the solid substance (1H-NMR after storage); format: physicochemical; settings: over six years at +0–4 °C in the refrigerator
Method: The specimen of compound 3, which was synthesized on Saturday, 27 May 2017, was investigated using proton NMR (Figure 13) on Wednesday, 23 August 2023, after over six years of storage at +0–4 °C in the refrigerator. The specimen was newly dried over CaCl2 in vacuo for 19 h. […]

[2] = system: EKVX; experiment: cells; settings: Homo sapiens, 48 h, read-out: LC50

COc1cc2c(c(OC)c1OC)-c1ccc(NNC(=S)N(Cc3cccc(C[N+](Cc4cccc(CNC56CC7CC(CC(C7)C5)C6)c4)(Cc4cccc(CNC56CC7CC(CC(C7)C5)C6)c4)Cc4cccc(CN(C(=S)NNc5ccc6c(cc5=O)C(NC(C)=O)CCc5cc(OC)c(OC)c(OC)c5-6)C56CC7CC(CC(C7)C5)C6)c4)c3)C34CC5CC(CC(C5)C3)C4)c(=O)cc1C(NC(C)=O)CC2 [Compound 3, [(bis{3-[(tricyclo[3.3.1.1^3,7]decan-1-ylamino)methyl]benzyl}ammonio)bis(methanediylbenzene-3,1-diylmethanediyl)]di-2-[(aS,7S)-7-(acetylamino)-1,2,3-trimethoxy-9-oxo-5,6,7,9-tetrahydrobenzo[a]heptalen-10-yl]-N-(tricyclo[3.3.1.1^3,7]decan-1-yl)hydrazinecarbothioamide chloride pentahydrate]
stability on storage (1H-NMR) [1]: very pure even after six years storage

COc1cc2c(c(OC)c1OC)-c1ccc(NNC(N)=S)c(=O)cc1C(NC(C)=O)CC2 [Compound 2, N-[(aS,7S)-10-(2-carbamothioylhydrazinyl)-1,2,3-trimethoxy-9-oxo-5,6,7,9-tetrahydrobenzo[a]heptalen-7-yl]acetamide monohydrate × ⅔ (ethyl acetate)]
CC50 [2]: > 100 µM
